Test system: gene expression in Col-0 seedling shoots
Assay: Microarray analysis (ATH1 Affymetrix) after BL or abrasin treatment
Format: in vivo, Arabidopsis
Procedure: FIG. 14: Clustering of gene expression profiles by QT-clust analysis. Clusters illustrating the major patterns of the data sets. Points: BIK-30: 30 μM abrasin 30 min; BL-30: 1 μM brassinolide 30 min; DMSO-30: control DMSO 30 min; BIK-120: 30 μM abrasin 120 min; BL-120: 1 μM brassinolide 120 min; DMSO-120: control DMSO 120 min.
Col-0 seeds were germinated vertically on ½ MS medium for 7 days under 16 h light/8 h dark cycles. The seedlings were overlaid with liquid ½ MS medium containing 1 μM brassinolide (BL, Fuji Chemical Industries, Ltd., Toyama, Japan), 30 μM abrasin (BIK, ChemBridge Corporation) and DMSO and treated for 30 and 120 min. The shoot parts were collected for RNA isolation. All sampling points were performed in three independent experiments. RNA was extracted using RNeasy kit (Qiagene). […] total RNA per array was used to hybridise the ATH1 Affymetrix Arabidopsis arrays according to standard procedure. The overrepresentation analyses were performed using BiNGO software (Maere et al., 2005).
We performed a microarray analysis using the Arabidopsis whole genome chip (Affymetix) to determine whether abrasin activated the expression of BR-inducible genes at transcriptional level. Wild-type Col-0 seedlings were exposed to 1 μM BL, 30 μM ABRASIN and DMSO (mock-treatment) for two time points (30 min and 120 min) and the shoot parts were collected for RNA isolation. The analysis of the variance of the normalized gene expression data took in account the variability parameters affecting the expression level: type of hormone treatment, duration of treatment and the interaction between these two.

O=C(O)CCC(=O)Nc1ccc(Br)cn1 [abrasin, 4-[(5-bromo-2-pyridinyl)amino]-4-oxobutanoic acid]
expression of BR biosynthesis genes (CPD, DWF4, BR6OX2), Cluster 1 (1 μM BL, 30 μM ABRASIN): down-regulated | expression of WRKY transcription factors, DOF-type proteins, lectin receptor-like kinases, U-box proteins, HAESA (1 μM BL, 30 μM ABRASIN): induces the expression | expression of genes involved in the auxin pathway (IAA29, IAA2) (1 μM BL, 30 μM ABRASIN): significantly down-regulated | induction of early auxin-inducible SAUR family genes, Cluster 3 (1 μM BL, 30 μM ABRASIN, 30 and 120 min): had an effect only after 2 hours | Fold-change AT1G04330 expressed protein (30 min): 1.17 | Fold-change AT1G05470 endonuclease/exonuclease/phosphatase family protein (30 min): 1.42 | Fold-change AT1G06520 Encodes a membrane associated mitochondrial localized protein (30 min): 1.26 | Fold-change AT1G06570 4-hydroxyphenylpyruvate dioxygenase (HPD) (30 min): 0.91 | Fold-change AT1G10550 xyloglucan:xyloglucosyl transferase (30 min): 1.26 | Fold-change AT1G12710 F-box family protein (30 min): 0.88 | Fold-change AT1G12750 rhomboid family protein (30 min): 1.46 | Fold-change AT1G14130 2-oxoglutarate-dependent dioxygenase (30 min): 1.10 | Fold-change AT1G14700 purple acid phosphatase (30 min): 0.53 | Fold-change AT1G16640 transcriptional factor B3 family protein (30 min): 1.14 | Fold-change AT1G17230 leucine-rich repeat family protein (30 min): 1.09 | Fold-change AT1G18020; AT1G17990 [AT1G18020, 12-oxophytodienoate reductase, (30 min): 1.31 | Fold-change AT1G19320 pathogenesis-related thaumatin family protein (30 min): 0.52 | Fold-change AT1G20350 mitochondrial import inner membrane translocase subunit (30 min): 1.00 | Fold-change AT1G21050 expressed protein (30 min): 0.32 | Fold-change AT1G21760 F-box family protein (30 min): 0.76 | Fold-change AT1G22360 UDP-glucoronosyl/UDP-glucosyl transferase family protein (30 min): 0.82 | Fold-change AT1G23080 auxin efflux carrier protein (PIN7) (30 min): 0.81 | Fold-change AT1G26800 zinc finger (C3HC4-type RING finger) family protein, (30 min): 1.07 | Fold-change AT1G27730 zinc finger (C2H2 type) family protein (30 min): 0.56 | Fold-change AT1G28130 encodes an IAA-amido synthase (30 min): 0.64 | Fold-change AT1G28190 expressed protein (30 min): 2.79 | Fold-change AT1G28480 glutaredoxin family protein (30 min): 1.02 | Fold-change AT1G31040 zinc-binding protein-related (30 min): 1.35 | Fold-change AT1G31310 hydroxyproline-rich glycoprotein family protein (30 min): 1.17 | Fold-change AT1G31770 ABC transporter family protein (30 min): 0.91 | Fold-change AT1G32190 expressed protein (30 min): 0.73 | Fold-change AT1G32690 expressed protein (30 min): 0.38 | Fold-change AT1G36940 expressed protein (30 min): 0.45 | Fold-change AT1G49780 U-box domain-containing protein (30 min): 0.71 | Fold-change AT1G53870; AT1G53890 [AT1G53870, expressed protein (30 min): 0.43 | Fold-change AT1G54050 17.4 kDa class III heat shock protein (HSP17.4-CIII) (30 min): 1.16 | Fold-change AT1G54200 expressed protein (30 min): 1.26 | Fold-change AT1G55920 serine O-acetyltransferase (30 min): 2.19 | Fold-change AT1G57560 myb family transcription factor (MYB50) (30 min): 1.19 | Fold-change AT1G59590 expressed protein (30 min): 1.99 | Fold-change AT1G59660 nucleoporin family proteinmily (30 min): 1.45 | Fold-change AT1G62300 WRKY family transcription factor (30 min): 1.58 | Fold-change AT1G63050 membrane bound O-acyl transferase (MBOAT) family protein (30 min): 0.75 | Fold-change AT1G66160 U-box domain-containing protein, (30 min): 2.03 | Fold-change AT1G66890 expressed protein (30 min): 0.65 | Fold-change AT1G68330 expressed protein (30 min): 1.76 | Fold-change AT1G68810 basic helix-loop-helix (bHLH) family protein (30 min): 0.80 | Fold-change AT1G69160 expressed protein (30 min): 0.67 | Fold-change AT1G70990 proline-rich family protein (30 min): 1.70 | Fold-change AT1G71030 Encodes a putative myb family transcription factor (30 min): 0.92 | Fold-change AT1G72060 expressed protein (30 min): 2.19 | Fold-change AT1G72180 leucine-rich repeat transmembrane protein kinase (30 min): 0.54 | Fold-change AT1G72800 nuM1-related, contains (30 min): 1.15 | Fold-change AT1G75270 dehydroascorbate reductase (30 min): 1.16 | Fold-change AT1G75500 nodulin MtN21 family protein (30 min): 0.67 | Fold-change AT1G76240 expressed protein, (30 min): 0.40 | Fold-change AT1G76410 zinc finger (C3HC4-type RING finger) (30 min): 0.54 | Fold-change AT1G79110 expressed protein (30 min): 0.66 | Fold-change AT1G79630 protein phosphatase 2C family protein (30 min): 0.62 | Fold-change AT1G80440 kelch repeat-containing F-box family protein (30 min): 1.36 | Fold-change AT2G01300 expressed protein (30 min): 0.73 | Fold-change AT2G01990 expressed protein, (30 min): 1.89 | Fold-change AT2G04240 zinc finger (C3HC4-type RING finger) family protein (30 min): 0.77 | Fold-change AT2G05540 glycine-rich protein (30 min): 0.71 | Fold-change AT2G12290; AT4G19700 [AT2G12290, expressed protein]; [AT4G19700, expressed protein] (30 min): 0.38 | Fold-change AT2G18010 auxin-responsive family protein (SAUR10) (30 min): 1.35 | Fold-change AT2G19800 expressed protein (30 min): 2.29 | Fold-change AT2G22860 phytosulfokines 2 (PSK2) (30 min): 0.68 | Fold-change AT2G23180 cytochrome P450, putative (30 min): 0.67 | Fold-change AT2G23320 WRKY family transcription factor (30 min): 1.41 | Fold-change AT2G26530 expressed protein (30 min): 1.24 | Fold-change AT2G26710 cytochrome p450 family (BAS1) (30 min): 0.72 | Fold-change AT2G28510 Dof-type zinc finger domain-containing protein (30 min): 1.28 | Fold-change AT2G29340 short-chain dehydrogenase/reductase (SDR) family protein (30 min): 1.55 | Fold-change AT2G29990 pyridine nucleotide-disulphide oxidoreductase family protein (30 min): 1.43 | Fold-change AT2G30070 potassium transporter (KUP1) (30 min): 0.61 | Fold-change AT2G31230 encodes a member of the ERF (ethylene response factor) (30 min): 2.13 | Fold-change AT2G34650 protein kinase PINOID (PID) (30 min): 1.04 | Fold-change AT2G36220 expressed protein (30 min): 1.10 | Fold-change AT2G37590 Dof-type zinc finger domain-containing protein (30 min): 1.52 | Fold-change AT2G38470 WRKY family transcription factor (30 min): 2.02 | Fold-change AT2G39710 aspartyl protease family protein (30 min): 2.42 | Fold-change AT2G40340; AT2G40350 [AT2G40340, encodes a member of the DREB subfamily A-2 of ERF/AP2 (30 min): 1.40 | Fold-change AT2G41250 haloacid dehalogenase-like hydrolase family protein (30 min): 0.82 | Fold-change AT2G41640 expressed protein (30 min): 1.96 | Fold-change AT2G42280 basic helix-loop-helix (bHLH) family protein (30 min): 0.67 | Fold-change AT2G43060 expressed protein, similar to cDNA bHLH transcription factor (30 min): 0.31 | Fold-change AT2G43280 far-red impaired responsive family protein (30 min): 0.78 | Fold-change AT2G43290 calmodulin-like protein (MSS3) (30 min): 0.81 | Fold-change AT2G44130 kelch repeat-containing F-box family protein (30 min): 1.13 | Fold-change AT2G44500 expressed protein (30 min): 1.26 | Fold-change AT2G45210 auxin-responsive protein-related (30 min): 0.34 | Fold-change AT2G45680 TCP family transcription factor (30 min): 0.50 | Fold-change AT2G46225 Encodes a subunit of the WAVE complex (30 min): 1.15 | Fold-change AT2G47440 DNAJ heat shock N-terminal domain-containing protein (30 min): 1.07 | Fold-change AT3G04210 disease resistance protein (TIR-NBS class), putative, (30 min): 2.18 | Fold-change AT3G09920 phosphatidylinositol-4-phosphate 5-kinase family protein (30 min): 1.56 | Fold-change AT3G12920 expressed protein (30 min): 0.45 | Fold-change AT3G13040 myb family transcription factor (30 min): 0.93 | Fold-change AT3G13510 expressed protein (30 min): 0.85 | Fold-change AT3G13980 expressed protein (30 min): 0.25 | Fold-change AT3G14370 protein kinase family protein (30 min): 1.10 | Fold-change AT3G14560 expressed protein (30 min): 0.59 | Fold-change AT3G16570 rapid alkalinization factor (RALF) family protein (30 min): 0.54 | Fold-change AT3G17860 expressed protein (30 min): 0.78 | Fold-change AT3G18830 polyol/cyclitol/monosaccharide-H+-symporte (30 min): 1.64 | Fold-change AT3G19380 U-box domain-containing protein (30 min): 0.67 | Fold-change AT3G23030 auxin-responsive protein/indoleacetic acid-induced protein 2 (IAA2) (30 min): 0.55 | Fold-change AT3G23550 MATE efflux family protein (30 min): 0.67 | Fold-change AT3G25710 basic helix-loop-helix (bHLH) family protein (30 min): 0.48 | Fold-change AT3G25900 homocysteine S-methyltransferase 1 (HMT-1) (30 min): 1.32 | Fold-change AT3G26910 hydroxyproline-rich glycoprotein family protein (30 min): 2.49 | Fold-change AT3G30180 cytochrome p450 enzyme (30 min): 0.09 | Fold-change AT3G46880 expressed protein, (30 min): 1.50 | Fold-change AT3G47800 aldose 1-epimerase family protein (30 min): 0.91 | Fold-change AT3G48970 copper-binding family protein (30 min): 0.40 | Fold-change AT3G49810 U-box domain-containing protein (30 min): 1.29 | Fold-change AT3G50650 scarecrow-like transcription factor 7 (SCL7) (30 min): 1.51 | Fold-change AT3G50660 steroid 22-alpha-hydroxylase (CYP90B1) (DWF4) (30 min): 0.47 | Fold-change AT3G50750 brassinosteroid signalling positive regulator-related (BEH1) (30 min): 0.63 | Fold-change AT3G52490 heat shock protein-related (30 min): 1.17 | Fold-change AT3G53810 lectin protein kinase (30 min): 2.28 | Fold-change AT3G54950 patatin-related, (30 min): 0.58 | Fold-change AT3G55120 chalcone-flavanone isomerase (30 min): 0.94 | Fold-change AT3G55150 exocyst subunit EXO70 family protein (30 min): 3.44 | Fold-change AT3G55840 expressed protein (30 min): 1.05 | Fold-change AT3G61460 zinc finger (C3HC4-type RING finger) family protein (BRH1) (30 min): 0.43 | Fold-change AT3G63300 expressed protein (30 min): 1.26 | Fold-change AT4G01680 myb family transcription factor (MYB55) (30 min): 0.21 | Fold-change AT4G02410 lectin protein kinase family protein (30 min): 2.60 | Fold-change AT4G08040 1-aminocyclopropane-1-carboxylate synthase, putative (30 min): 0.08 | Fold-change AT4G09460 myb family transcription factor (30 min): 1.50 | Fold-change AT4G12390 invertase/pectin methylesterase inhibitor family protein (30 min): 0.75 | Fold-change AT4G12410 auxin-responsive family protein (30 min): 0.66 | Fold-change AT4G14130 xyloglucan:xyloglucosyl transferase (30 min): 0.37 | Fold-change AT4G15975 zinc finger (C3HC4-type RING finger) family protein (30 min): 2.33 | Fold-change AT4G16146 expressed protein (30 min): 0.91
